Data set [1] deals with mouse sperm. As to the kind of experiment: Ex vivo sperm tyrosine phosphorylation (Western blot) from injected mice. The class given is in vivo. As to conditions: 50 mg/kg i.p., one hour post injection. As for the experimental part: After 15 minutes swim-out at 37° C., sperm from two caudae were combined and counted using a hematocytometer. For capacitation, sperm were incubated for 90 minutes in TYH containing 3 mg/ml BSA and 25 mM NaHCO3 in a 37° C. incubator. To control for the consequences of dilution during isolation of epididyrnal mouse sperm for ex vivo assays, the ability for bicarbonate to induce a prototypical pattern of tyrosine phosphorylation (pY) which is a widely used molecular hallmark of capacitation was assessed [Reference 80]. Bicarbonate-induced pY is known to be sAC dependent in vitro [References 37, 46, 62]. For experiments studying sperm from injected mice, ‘swim out’ was performed in 200 μl TYH, which corresponded to a 1:10 dilution from epididymis ([…] in 200 μl buffer). Capacitation induced changes were assessed by adding 50 μl of ‘swim out’ sperm to increasing volumes of non-capacitating or capacitating TYH buffer.
Mouse sperm from vehicle or inhibitor-injected mice were isolated 1 hour from male mice injected (i.p.) with 150 μl of solution containing sAC inhibitor or vehicle. Sperm were diluted 1:20 to 1:1000 in capacitating TYH media. As control, sperm from vehicle-injected mice were diluted 1:1000 in non-capacitating and capacitating TYH buffer. The samples were incubated for 90 minutes, washed with 1 ml PBS and sedimented by centrifugation at 2,000×g for 3 minutes. The sedimented sperm were resuspended in 15 μl 2× Laemmli sample buffer [Reference 83], heated for 5 minutes at 95° C., supplemented with 8 μl β-mercaptoethanol and heated again for 5 minutes at 95° C. For Western blot analysis, proteins were transferred onto PVDF membranes (Thermo Scientific), probed with anti-phosphotyrosine antibodies, and analyzed using a cherniluminescence detection system. Image lab (Bio-Rad) was used for densitometric analysis of Western blots.
(In general: Immunoblotting shows a protein as a band on a membrane.)

Data set [2] relates to wild type C57B1/6 male mice. As to the kind of experiment: Imiquimod-induced type 17 skin inflammation, topical treatment. The class given is in vivo, mouse. As for the experimental part:
Wild type C57B1/6 male mice 8-10 week old were purchased from Jackson labs. A 7 mm diameter circle was shaved and treated with Nair on the flank. Baseline ear thickness was measured. For 5 days, mice received daily treatment of 30 mg of 5% imiquimod cream (Taro) to each ear and to the 7 mm area on the flank. Ear thickness was recorded on days 3 and 5 to ensure peak inflammation had occurred. Mice were then randomized into three cohorts: vehicle, LRE1, and Clobetasol. […] Treatment with imiquimod was continued during this period as above. Ear thickness was recorded every day before the first dose of drug. On day 11, all mice were euthanized. A 7 mm punch biopsy was collected from the flank and both ears were removed. Skin was stored in RNAlater (Sigma) for qPCR or 10% formalin for immunohistochemistry.
For tissue, RNA was isolated according to specifications of the RNA easy plus universal mini kit (Qiagen). Tissue was homogenized using stainless steel beads in a bead beater. For frozen cell pellets, RNA was isolated according to specifications of the RNA easy plus mini kit (Qiagen). Samples were homogenized using Qiashredder columns (Qiagen). RNA quality control was performed using a nanodrop spectrophotometer. cDNA was made using the high-capacity rna-to-cdna kit (thermo fischer). The applied biosystems power SYBR green PCR master mix was used for qPCR. 40 cycles with annealing temperatures of 60 degrees celsius and a melting curve were performed using the QuantStudio 6 real-time PCR instrument (thermo fischer). Delta delta CT analysis was performed to determine relative transcription amongst samples normalized to GAPDH.

For data set [3], the system named is wild type (WT) C57B1/6 mouse eyes. As to the kind of experiment: Intraocular pressure (IOP) study. Type of data set: in vivo. The conditions noted are these: one hour post ip injection. As for the experimental part: A mouse was anesthetized via intraperitoneal (ip) injection of room temperature ketamine/xylazine. Anesthesia was assessed by pinching back. The anesthetized mouse was placed on a platform. The anterior chamber was cannulated using a 33-gauge stainless steel needle. The needle was inserted anterior to the limbus and through the cornea. The cannula was connected to a pressure transducer using teflon tubing and was calibrated to a water height equivalent of 0 mm Hg. The transducer signal was amplified, converted to a digital signal, and the voltage was recorded using LabScribe3 software. IOP was calculated by comparing the change in voltage to a standard calibration curve generated at the end of each experiment using the water height column.

Data set [4] deals with mouse oocytes with capacitated wild-type sperm. As to the kind of experiment: In vitro fertilization. Type of data set: cell-based. As for the experimental part:
In vitro fertilization: On the day of preparation, sperm were capacitated for 90 min in HTF medium (EmbryoMax Human Tubal Fluid; Merck Millipore). 100 μl drops of HTF were covered with medium/oil mixture (HTF mixed 1:1 with mineral oil), and 10^5 sperm were added to each drop. Cumulus-enclosed oocytes were prepared from the oviducts of superovulated females and added to the drops. […] The number of 2-cell stages was evaluated after 24 hr.

Data set [5] is described as follows: Serum levels after single i.p. injection. Type of data set: in vivo, mouse. The conditions noted are these: single intraperitoneal (i.p.) injection.
Data set [6] concerns human sperm. As to the kind of experiment: Acrosome reaction assay. Type of data set: cell-based. The conditions noted are these: 5 μM Example 1 or 10 nM Example 133; 10 μM progesterone. As for the experimental part:
For analysis of acrosomal exocytosis, 100 μl of 1×10^7 sperm/ml were capacitated for 90 minutes in TYH buffer supplemented with 3 mg/ml BSA and 25 mM NaHCO3 (mouse sperm) or HTF buffer supplemented with […] HSA and 25 mM NaHCO3 (human sperm). sAC inhibitors were added with capacitating buffer; 0.1% DMSO was used as vehicle control. Acrosome reaction was induced by incubating mouse sperm with 50 mouse solubilized zonae pellucidae for 15 minutes at 37° C., or human sperm with 10 μM progesterone for 30 minutes at 37° C. The sperm suspensions were sedimented by centrifugation at 2,000×g for 5 minutes and the sedimented sperm were resuspended in 100 μl PBS buffer. Samples were air-dried on microscope slides and fixed for 30 minutes in 100% ethanol at room temperature (RT). For acrosome staining, mouse and human sperm were incubated for 30 minutes in the dark with 5 μg/ml PNA-FITC or 5 μg/ml PSA-FITC, respectively, and counterstained with 2 μg/ml DAPI. After curing, slides were analyzed using a Zeiss LSM 880 Laser Scanning Confocal Microscope; images were captured with two photomultiplier and one Gallium Arsenide Phosphide detector using ZEN Imaging software. For each condition, at least 600 cells were analyzed using ImageJ 1.52.

Data set [7] concerns mouse sperm. Put plainly: Acrosome reaction assay. Type of data set: cell-based. As to conditions: 5 μM Example 1 or 10 nM Example 133; capacitating media 90 minutes. On the procedure: Zonae pellucidae were isolated from female mice superovulated by intraperitoneal injection of 10 I.U. […] 3 days before the experiment. 14 hours before oocyte isolation, mice were injected with 10 I.U. […]. Oviducts were collected following cervical dislocation. Cumulus-enclosed oocytes were separated from the oviducts and placed into TYH buffer containing 300 μg/ml hyaluronidase. After 15 minutes, cumulus-free oocytes were transferred into fresh buffer and washed twice. Zonae pellucidae and oocytes were separated by shear forces generated by expulsion from […] pasteur pipettes. Zona pellucidae were counted, transferred into fresh buffer and heat-solubilized by incubation for 10 minutes at 65° C.
For analysis of acrosomal exocytosis, 100 μl of 1×10^7 sperm/ml were capacitated for 90 minutes in TYH buffer supplemented with 3 mg/ml BSA and 25 mM NaHCO3 (mouse sperm) or HTF buffer supplemented with […] HSA and 25 mM NaHCO3 (human sperm). sAC inhibitors were added with capacitating buffer; 0.1% DMSO was used as vehicle control. […] After curing, slides were analyzed using a Zeiss LSM 880 Laser Scanning Confocal Microscope; images were captured with two photomultiplier and one Gallium Arsenide Phosphide detector using ZEN Imaging software. For each condition, at least 600 cells were analyzed using ImageJ 1.52.

Setting [8] is: swim out sperm minimally diluted.

The text below walks through data of patent publication US20240239774A1, “SOLUBLE ADENYLYL CYCLASE (SAC) INHIBITORS AND USES THEREOF” (Cornell University, priority 2021, published 2024).

With `Cc1c(Cc2ccccc2)c(-c2cc(Cl)nc(N)n2)nn1C` [Example 1, 4-(4-benzyl-1,5-dimethyl-pyrazol-3-yl)-6-chloro-pyrimidin-2-amine], the “capacitation-induced tyrosine phosphorylation (pY) pattern ex vivo” value in data set [1] (diluted 25 fold) is recorded as “restored”; in data set [1] (setting [8]), “blocked”. Besides, the “inflammation in the ears measured by ear calipers” value in data set [2] (applied at the same time as imiquimod, N=5) is recorded as “reduce the inflammation”. In addition, the “skin inflammation (ear thickness)” value in data set [2] (imiquimod 6 days, then continued imiquimod plus topical twice a day: LRE1 3%, Example 1 […], Clobetasol 0.05%) is on record as “significant reduction in skin inflammation”. Further, in data set [2] (imiquimod for one week, then imiquimod plus compound, over 4 days, N=5), the reduction in inflammation is reported as 50%. The “intraocular pressure (IOP)” value in data set [3] is on record as “dose dependently elevates IOP”. For the same compound, the “amount of 2-cell stage oocytes” value in data set [4] (5 μM, control 30%) was determined as 10%. For the same compound, in data set [4] (50 μM), the fertilization in vitro result is “fully blocked fertilization”. Further, the “time to maximum serum levels (C max)” value in data set [5] was at most 7.5 min.

Consider `Nc1nc(Cl)cc(-c2nn(C(F)F)cc2Cc2ccccc2OCCN2CCOC[C@H]2CO)n1` [Example 133], for which the “blocking acrosome reaction induced by progesterone” value in data set [6] is “more potent than Example 1”. Besides, the “capacitation-induced tyrosine phosphorylation (pY) pattern ex vivo” value was “remained blocked” in data set [1] (diluted 100 fold) and “blocked” in data set [1] (setting [8]). For the same compound, in data set [7], the “blocking acrosome reaction induced by zona pellucidae” value is “more potent than Example 1”. The “time to maximum serum levels (C max)” value in data set [5] is at most 7.5 min.
